The source of these data is patent publication US12558428B2, “Heterobifunctional compounds and their use in treating disease” (Halda Therapeutics OpCo, Inc., priority 2024, dated 2026).

What all share (format): cell-based
Assay [1] relates to T-Rex 293 cells having increased expression of estrogen receptor alpha protein. Briefly: Cellular growth inhibition assay, T-Rex 293 cells, (+) doxycycline. Particulars: T-REx-293, 72 h, 72 hours. An outline of the steps:
(§1)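 ERα overexpression was switched on by 3 ng/mL doxycycline in a stably transfected T-Rex 293 clone, while uninduced cells served as the comparison line. Proliferation over 72 h of compound treatment was assessed by ATP luminescence, and GI50 values came from four-parameter curves.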

The subject of assay [2] is T-Rex 293 cells lacking increased expression of estrogen receptor alpha protein. Briefly: Cellular growth inhibition assay, T-Rex 293 cells, (−) doxycycline. The following applies: T-REx-293, 72 h, 72 hours. An outline of the steps: as §1
The test system of assay [3] is MCF7 cells (ATCC #HTB-22). Briefly: Cellular growth inhibition assay, MCF7 cells purchased from ATCC. The following applies: Homo sapiens, MCF7, 144 h, Table 8-A; MCF7 cells purchased from ATCC; six days; CellTiter-Glo; read-out: GI50. An outline of the steps:
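MCF7 cells in RPMI 1640 with 10% FBS and 0.2 U/ml insulin, seeded at 1,500 cells/well (ATCC) or 225 cells/well (ECACC). Compounds added 24 h later, then 6 days at 37° C. Viability by CellTiter-Glo 2.0 luminescence. GI50 from four-parameter fit.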
(In general: In ATP-based viability assays light output follows the ATP content of the culture.)

Setting [4] is: Table 7-A, T-Rex 293 cells with doxycycline (increased ERα expression), CellTiter-Glo, read-out: (+) Dox GI50.
Setting [5] is: Table 7-A, T-Rex 293 cells without doxycycline (lacking increased ERα expression), CellTiter-Glo, read-out: (−) Dox GI50.
The mark [6] stands for this setting: T-Rex 293 cells with doxycycline-induced ERα expression, CellTiter-Glo 2.0, read-out: (+) Dox TRex ERa (GI50).
[7] abbreviates: T-Rex 293 cells without doxycycline, CellTiter-Glo 2.0, read-out: (−) Dox TRex ERa (GI50).

Like-named read-outs stand apart in the source and are kept apart here.

On to `CC1=C(c2c(F)cc(F)cc2F)[C@@H](c2ccc(N3CCN(CC4CCN(c5ccc(C6=N[C@@H](C)c7nnc(C)n7-c7sc(C)c(C)c76)cc5)CC4)CC3)cc2)Oc2ccc(O)cc21` [V-22], for which the GI50 (commonly the concentration at which growth is held to half of that of the control) in assay [1] (setting [4]) is under 50 nM; in assay [2] (setting [5]), 500 to 2500 nM; in assay [3], 50 to 500 nM.
On to `Cc1sc2c(c1C)C(c1ccc(N3CCN(CCN4CC(Oc5ccc(C6=C(c7ccc(Cl)cc7Cl)CCCc7cc(C(=O)O)ccc76)cc5)C4)CC3)cc1)=N[C@@H](C)c1nnc(C)n1-2` [IV-3], for which the GI50 in assay [1] (setting [4]) was under 50 nM; in assay [2] (setting [5]) it was 500 to 2500 nM; in assay [3] it was 50 to 500 nM.
Take `Cc1sc2c(c1C)C(c1ccc(N3CCC(CC4(O)CCN(c5ccc([C@@H]6c7ccc(O)cc7CC[C@@H]6c6ccccc6)cc5)CC4)CC3)cc1)=N[C@@H](C)c1nnc(C)n1-2` [III-153]: the GI50 was under 50 nM in assay [1] (setting [4]), 500 to 2500 nM in assay [2] (setting [5]) and 50 to 500 nM in assay [3].
As to `Cc1sc2c(c1C)C(c1ccc(N3CC(CN4CCC(O)(CN5CC(c6ccc([C@@H]7c8ccc(O)cc8CC[C@@H]7c7ccccc7)cc6)C5)CC4)C3)cc1)=N[C@@H](Cc1ncco1)c1nnc(C)n1-2` [III-180], the GI50 in assay [1] (setting [4]) is under 50 nM; in assay [2] (setting [5]), 50 to 500 nM; in assay [3], under 50 nM.
Consider `Cc1sc2c(c1C)C(c1ccc(NCC3(F)CCN(CCOc4ccc([C@@H]5c6ccc(O)cc6CC[C@@H]5c5ccccc5)cc4)CC3)cc1)=NC(Cc1ncco1)c1nnc(C)n1-2` (stereo partly drawn) [III-30], for which the GI50 was under 50 nM in assay [1] (setting [4]), 50 to 500 nM in assay [2] (setting [5]) and 50 to 500 nM in assay [3].
Consider `Cc1sc2c(c1C)C(c1ccc(N3CCC(CN4CCN(c5ccc([C@@H]6c7ccc(O)cc7CC[C@@H]6c6ccccc6)cc5)CC4)CC3)cc1)=N[C@@H](C)c1nnc(C)n1-2` [III-5], for which the GI50 in assay [1] (setting [4]) is under 50 nM; in assay [2] (setting [5]) it was 500 to 2500 nM; in assay [3], under 50 nM.
Take `COc1cc(N2CCN(CC3(O)CCN(c4ccc(C5=N[C@@H](C)c6nnc(C)n6-c6sc(C)c(C)c65)cc4)CC3)CC2)ccc1[C@@H]1c2ccc(O)cc2CC[C@@H]1c1ccccc1F` (single isomer, unassigned) [III-307]: the results for the GI50 in assay [1] (setting [4]), in assay [2] (setting [5]) and in assay [3] were under 50 nM, 500 to 2500 nM and under 50 nM, respectively.
As to `Cc1sc2c(c1C)C(c1ccc(C#CC3CC4(CCN(c5ccc([C@H]6c7ccc(O)cc7CC[C@H]6c6ccccc6)cc5)CC4)C3)cc1)=N[C@@H](C)c1nnc(C)n1-2` [III-18], the GI50 is over 2500 nM in assay [1] (setting [4]), over 2500 nM in assay [2] (setting [5]) and 500 to 2500 nM in assay [3].
With `Cc1sc2c(c1C)C(c1ccc(C3CN(C(=O)C4CCN(c5ccc([C@@H]6c7ccc(O)cc7CC[C@@H]6c6ccccc6)cc5)CC4)C3)cc1)=N[C@@H](Cc1ncco1)c1nnc(C)n1-2` [III-156], the GI50 in assay [1] (setting [4]), in assay [2] (setting [5]) and in assay [3] was under 50 nM throughout.
Consider `Cc1sc2c(c1C)C(c1ccc(N3CCC(O)(CN4CCN(c5ccc(C6=C(c7ccc(Cl)cc7Cl)CCCc7cc(C(=O)O)ccc76)cc5)CC4)CC3)cc1)=N[C@@H](C)c1nnc(C)n1-2` [IV-9], for which the results for the GI50 in assay [1] (setting [4]), in assay [2] (setting [5]) and in assay [3] were under 50 nM, 500 to 2500 nM and under 50 nM, respectively.
`Cc1sc2c(c1C)C(c1ccc(OCC3CCN(CCOc4ccc([C@@H]5c6ccc(O)cc6CC[C@@H]5c5ccccc5)cc4)CC3)cc1)=N[C@@H](Cc1ncco1)c1nnc(C)n1-2` [III-111]: the values for the GI50 in assay [1] (setting [4]), in assay [2] (setting [5]) and in assay [3] were under 50 nM, 50 to 500 nM and 50 to 500 nM, respectively.
Regarding `CCN(CCOCCOCCOCCOCCOCCOCCNC(=O)C[C@@H]1N=C(c2ccc(Cl)cc2)c2c(sc(C)c2C)-n2c(C)nnc21)CCOc1ccc(C(=O)c2c(-c3ccc(O)cc3)sc3cc(O)ccc23)cc1` [I-5, (S)-2-(4-(4-chlorophenyl)-2,3,9-trimethyl-6H-thieno[3,2-f][1,2,4]triazolo[4,3-a][1,4]diazepin-6-yl)-N-(3-ethyl-1-(4-(6-hydroxy-2-(4-hydroxyphenyl)benzo[b]thiophene-3-carbonyl)phenoxy)-6,9,12,15,18,21-hexaoxa-3-azatricosan-23-yl) acetamide], the GI50 in assay [1] (setting [6]) is under 50 nM; in assay [2] (setting [7]), 500 to 2500 nM; in assay [3] it was 50 to 500 nM.
As for `Cc1sc2c(c1C)C(c1ccc(C3CCN(C[C@@H]4[C@H]5CN(c6ccc([C@H]7c8ccc(O)cc8CC[C@H]7c7ccccc7)cc6)C[C@@H]45)CC3)cc1)=N[C@@H](C)c1nnc(C)n1-2` [III-22], the GI50 in assay [1] (setting [4]) was under 50 nM; in assay [2] (setting [5]), 500 to 2500 nM; in assay [3] it was 50 to 500 nM.
The like results for `Cc1sc2c(c1C)C(c1ccc(N3CC(C[C@H]4CC[C@H](CN5CC(c6ccc([C@@H]7c8ccc(O)cc8CC[C@@H]7c7ccccc7)cc6)C5)CC4)C3)cc1)=N[C@@H](C)c1nnc(C)n1-2` [III-233] were, in that order, under 50 nM, 500 to 2500 nM and 50 to 500 nM.
Consider `Cc1sc2c(c1C)C(c1ccc(C3CCC4(CCN(CN5CC(c6ccc([C@@H]7c8ccc(O)cc8CC[C@@H]7c7ccccc7)cc6)C5)CC4)C3)cc1)=N[C@@H](C)c1nnc(C)n1-2` (stereo partly drawn) [III-228], for which the GI50 in assay [1] (setting [4]) was under 50 nM; in assay [2] (setting [5]), 500 to 2500 nM; in assay [3], 50 to 500 nM.
Consider `Cc1sc2c(c1C)C(c1ccc(N3CCC4(CCN(Cc5ccc([C@@H]6c7ccc(O)cc7CC[C@@H]6c6ccccc6)cc5)CC4)CC3)cc1)=N[C@@H](C)c1nnc(C)n1-2` [III-129], for which the figures for the GI50 in assay [1] (setting [4]), in assay [2] (setting [5]) and in assay [3] were 50 to 500 nM, 500 to 2500 nM and 50 to 500 nM, respectively.
Consider `Cc1sc2c(c1C)C(c1ccc(N3CCC(O)(CN4CCN(c5cc(F)c([C@H]6c7ccc(O)cc7CC[C@H]6c6ccccc6)cc5F)CC4)CC3)cc1)=N[C@@H](C)c1nnc(C)n1-2` [III-247], for which the GI50 was under 50 nM in assay [1] (setting [4]), 50 to 500 nM in assay [2] (setting [5]) and 50 to 500 nM in assay [3].
As for `Cc1sc2c(c1C)C(c1ccc(N3CCC(O)(CN4CCN(c5ccc([C@@H]6c7ccc(O)cc7CC[C@@H]6c6ccc(F)cc6)cc5)CC4)CC3)cc1)=N[C@H](Cc1ncco1)c1nnc(C)n1-2` [III-208], the GI50 in assay [1] (setting [4]) is over 2500 nM; in assay [2] (setting [5]) it was over 2500 nM; in assay [3], 500 to 2500 nM.
`Cc1sc2c(c1C)C(c1ccc(N3CCC(O)(CC4CCN(c5ccc([C@@H]6c7ccc(O)cc7CC[C@@H]6c6ccccc6)cc5)CC4)CC3)cc1)=N[C@H](Cc1ncco1)c1nnc(C)n1-2` [III-154]: the values for the GI50 in assay [1] (setting [4]), in assay [2] (setting [5]) and in assay [3] were over 2500 nM, over 2500 nM and 50 to 500 nM, respectively.
For the molecule `Cc1sc2c(c1C)C(c1ccc(N3CCN(CCOc4ccc([C@@H]5c6ccc(O)cc6CC[C@@H]5c5ccccc5)cc4)CC3)cc1)=N[C@@H](C)c1nnc(C)n1-2` [III-16], the GI50 in assay [1] (setting [4]), in assay [2] (setting [5]) and in assay [3] was 50 to 500 nM in each case.
Regarding `Cc1sc2c(c1C)C(c1ccc(N3CC(CN4CCC(COc5ccc([C@@H]6c7ccc(O)cc7CC[C@@H]6c6ccccc6)cc5)CC4)C3)cc1)=N[C@@H](C)c1nnc(C)n1-2` [III-106], the GI50 in assay [1] (setting [4]) is under 50 nM; in assay [2] (setting [5]), 500 to 2500 nM; in assay [3] it was 50 to 500 nM.
Turning to `Cc1sc2c(c1C)C(c1ccc(N3CCN(CC4CCN(c5ccc(C6=C(c7ccc(Cl)cc7Cl)CCCc7cc(C(=O)O)ccc76)cc5)CC4)CC3)cc1)=N[C@@H](Cc1ncco1)c1nnc(C)n1-2` [IV-4], the GI50 in assay [1] (setting [4]) is 50 to 500 nM; in assay [2] (setting [5]) it was 500 to 2500 nM; in assay [3], under 50 nM.
Turning to `Cc1sc2c(c1C)C(c1ccc(N3CC4(CC(CN5CCN(c6ccc([C@@H]7c8ccc(O)cc8CC[C@@H]7c7ccccc7)cc6)CC5)C4)C3)cc1)=N[C@@H](C)c1nnc(C)n1-2` [III-243], the values for the GI50 in assay [1] (setting [4]), in assay [2] (setting [5]) and in assay [3] were under 50 nM, 500 to 2500 nM and under 50 nM, respectively.
Take `Cc1sc2c(c1C)C(c1ccc(OCCC3CCN(CCOc4ccc(C(=O)c5c(-c6ccc(O)cc6)sc6cc(O)ccc56)cc4)CC3)cc1)=N[C@@H](Cc1ncco1)c1nnc(C)n1-2` [I-13, (S)-(6-hydroxy-2-(4-hydroxyphenyl)benzo[b]thiophen-3-yl)(4-(2-(4-(2-(4-(2,3,9-trimethyl-6-(oxazol-2-ylmethyl)-6H-thieno[3,2-f][1,2,4]triazolo[4,3-a][1,4]diazepin-4-yl)phenoxy)ethyl)piperidin-1-yl)ethoxy)phenyl)methanone]: the figures for the GI50 in assay [1] (setting [6]), in assay [2] (setting [7]) and in assay [3] were under 50 nM, 50 to 500 nM and under 50 nM, respectively.
For the molecule `Cc1sc2c(c1C)C(c1ccc(N3CC(N4CCN(Cc5ccc([C@@H]6c7ccc(O)cc7CC[C@@H]6c6ccccc6)cc5)CC4)C3)cc1)=N[C@@H](Cc1ncco1)c1nnc(C)n1-2` [III-124], the GI50 in assay [1] (setting [4]) fell in the range of 50 to 500 nM; in assay [2] (setting [5]), 500 to 2500 nM; in assay [3] it was 50 to 500 nM.
`Cc1sc2c(c1C)C(c1ccc(N3CCC(O)(CN4CCN(c5ccc([C@@H]6c7ccc(O)cc7CC[C@@H]6c6ccccc6)nn5)CC4)CC3)cc1)=N[C@@H](Cc1ncco1)c1nnc(C)n1-2` [III-226]: the GI50 was under 50 nM in assay [1] (setting [4]), 50 to 500 nM in assay [2] (setting [5]) and under 50 nM in assay [3].
